According to ChEMBL document CHEMBL1201862, “PubChem BioAssay data set” (2004):
Calls of active or inactive are those of the source.

Assays:
[1] = biological target: Intestinal-type alkaline phosphatase (Mus musculus, UniProt P24822); assay: PubChem AID 488875; type: functional
[2] = biological target: T1, Intestinal-type alkaline phosphatase (Homo sapiens, UniProt P09923); assay: human intestinal alkaline phosphatase activators, dose response, biochemical, luminescence, uHTS hits (AID 463120); type: functional
[3] = biological target: T1, Intestinal-type alkaline phosphatase; assay: activation of human intestinal alkaline phosphatase – biochemical, luminescent, uHTS hits, set 2, dose response (AID 488817); type: functional;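 further: potency of activators that raise enzyme activity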
[4] = biological target: T2, Alkaline phosphatase, tissue-nonspecific isozyme (Homo sapiens, UniProt P05186); assay: activation of tissue-nonspecific alkaline phosphatase – biochemical, TNAP isozyme, human IAP uHTS hits, selectivity assay for human IAP activator project, dose response (AID 488886); type: functional;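 further: potency of compounds raising TNAP activity as a selectivity check on IAP activators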
T2 sequence (P05186 whole entry): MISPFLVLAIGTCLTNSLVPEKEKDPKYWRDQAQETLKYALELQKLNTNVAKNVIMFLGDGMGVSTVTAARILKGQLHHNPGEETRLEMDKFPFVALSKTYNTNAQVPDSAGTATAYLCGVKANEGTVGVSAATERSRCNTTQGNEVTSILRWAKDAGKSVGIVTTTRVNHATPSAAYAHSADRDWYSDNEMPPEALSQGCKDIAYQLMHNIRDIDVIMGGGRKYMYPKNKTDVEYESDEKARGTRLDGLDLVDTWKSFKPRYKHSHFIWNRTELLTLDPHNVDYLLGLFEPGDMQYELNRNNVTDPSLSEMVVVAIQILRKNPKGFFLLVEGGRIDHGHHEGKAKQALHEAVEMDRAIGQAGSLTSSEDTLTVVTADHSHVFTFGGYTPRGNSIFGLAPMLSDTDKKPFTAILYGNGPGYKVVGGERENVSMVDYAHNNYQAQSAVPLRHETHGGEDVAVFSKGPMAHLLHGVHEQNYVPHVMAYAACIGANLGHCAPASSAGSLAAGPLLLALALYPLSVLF

[5] = NIH-3T3 fibroblast cytotoxicity, dose response, cytotoxicity control, cell-based, fluorescence, Alamar Blue, secondary assay (AID 2327); type: functional;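 further: NIH-3T3 mouse fibroblasts cultured with fluconazole at 8 µg/mL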
[6] = system: Streptococcus sp. 'group A'; assay: Streptococcus pyogenes SK(-)GAS viability under kanamycin – luminescence, BacTiterGlo, confirmation, counter-screen for streptokinase expression inhibitor project, dose response (AID 1900); type: functional, organism-based
Streptokinase A = biological target: T3, Streptokinase A (Streptococcus pyogenes serotype M1, UniProt P10520); assay: viability-normalized secreted streptokinase activity reduction – plasminogen activation absorbance, OD405, dose response (AID 1914); type: functional, Streptococcus pyogenes M1 GAS;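 further: secreted streptokinase activity via plasminogen activation per viability signal from cell pellet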
T3 sequence (P10520 whole entry): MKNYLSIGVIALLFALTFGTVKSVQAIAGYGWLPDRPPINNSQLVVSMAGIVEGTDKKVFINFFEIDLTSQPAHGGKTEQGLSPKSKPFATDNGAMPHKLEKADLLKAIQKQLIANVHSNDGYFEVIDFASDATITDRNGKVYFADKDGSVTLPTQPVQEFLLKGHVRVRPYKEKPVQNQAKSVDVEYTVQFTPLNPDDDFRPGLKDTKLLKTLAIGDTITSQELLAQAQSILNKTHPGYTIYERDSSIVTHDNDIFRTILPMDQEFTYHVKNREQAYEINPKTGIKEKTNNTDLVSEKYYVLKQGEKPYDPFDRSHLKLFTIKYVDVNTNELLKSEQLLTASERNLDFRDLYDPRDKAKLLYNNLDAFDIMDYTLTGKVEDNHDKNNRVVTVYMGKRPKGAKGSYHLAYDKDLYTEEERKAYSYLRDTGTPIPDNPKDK

[7] = fluconazole-exposed Candida albicans growth modulators – fluorescence, retest, confirmation (AID 2467); type: functional, cell-based
Large T antigen = Large T antigen (Simian virus 40, UniProt P03070); type: functional, Betapolyomavirus macacae;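 further: Confirmatory-stage PubChem screen for compounds that inhibit SV40 T antigen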
NS3 = NS3 (Hepatitis C virus, UniProt A3EZJ3); assay: PubChem AID 2173; set-up: species or system Hepacivirus hominis
Streptococcus = assay: GAS UMAA2166 growth inhibition – luminescence, BacTiterGlo, counter-screen for streptokinase expression inhibitor project, dose response (AID 1915); type: functional, organism-based;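 further: potency for reduction of bacterial viability or growth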
Troponin, cardiac muscle = Troponin, cardiac muscle (Homo sapiens, UniProt P19429+P45379+P63316); assay: compounds desensitizing RTF to calcium – biochemical, fluorescence, cardiac regulated thin filaments, triplicate IC50, dose response (AID 504742); type: protein-complex assay
[8] = biological target: Lysine-specific demethylase 4A (Homo sapiens, UniProt O75164); assay: inhibition of JMJD2A H3K9me3 demethylation – biochemical, DELFIA europium, cherry-picked samples, selectivity assay for GASC-1 inhibitor project, dose response (AID 488840)
[9] = biological target: T4, Lysine-specific demethylase 4C (Homo sapiens, UniProt Q9H3R0); assay: inhibition of JMJD2C H3K9me3 demethylation – biochemical, DELFIA europium, cherry-picked samples, dose response (AID 488835); type: functional
T4 sequence (Q9H3R0 whole entry): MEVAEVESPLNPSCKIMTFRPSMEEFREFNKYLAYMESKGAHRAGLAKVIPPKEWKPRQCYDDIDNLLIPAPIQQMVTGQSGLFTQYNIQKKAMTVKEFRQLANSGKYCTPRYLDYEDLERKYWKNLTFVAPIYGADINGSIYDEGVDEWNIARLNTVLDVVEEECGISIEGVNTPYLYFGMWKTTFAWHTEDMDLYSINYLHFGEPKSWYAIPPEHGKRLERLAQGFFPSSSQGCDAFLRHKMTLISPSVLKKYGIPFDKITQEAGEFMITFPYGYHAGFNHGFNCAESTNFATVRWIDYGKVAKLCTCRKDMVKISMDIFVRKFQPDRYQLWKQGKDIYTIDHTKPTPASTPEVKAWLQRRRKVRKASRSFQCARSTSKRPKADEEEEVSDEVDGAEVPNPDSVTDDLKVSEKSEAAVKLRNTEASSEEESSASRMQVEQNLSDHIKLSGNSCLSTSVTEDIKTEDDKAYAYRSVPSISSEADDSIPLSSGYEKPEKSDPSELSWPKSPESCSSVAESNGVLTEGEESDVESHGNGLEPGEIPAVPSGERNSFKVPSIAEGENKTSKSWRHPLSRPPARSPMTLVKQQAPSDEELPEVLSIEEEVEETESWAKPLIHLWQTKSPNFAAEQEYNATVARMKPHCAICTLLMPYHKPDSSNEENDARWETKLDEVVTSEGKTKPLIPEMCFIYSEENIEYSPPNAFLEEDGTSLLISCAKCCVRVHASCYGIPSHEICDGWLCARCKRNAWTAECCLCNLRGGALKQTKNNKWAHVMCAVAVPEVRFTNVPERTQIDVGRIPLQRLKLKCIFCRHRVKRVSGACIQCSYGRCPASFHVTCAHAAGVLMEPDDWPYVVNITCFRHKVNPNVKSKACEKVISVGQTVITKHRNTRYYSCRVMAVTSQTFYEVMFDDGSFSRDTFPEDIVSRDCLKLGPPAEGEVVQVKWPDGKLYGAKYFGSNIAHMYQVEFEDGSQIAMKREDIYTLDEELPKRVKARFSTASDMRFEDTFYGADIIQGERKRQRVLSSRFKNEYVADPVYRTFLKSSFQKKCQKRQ

[10] = biological target: Heat shock protein HSP 90-alpha (Homo sapiens, UniProt P07900); type: functional, organism-based
Vero = assay: viability of Vero cells under compound – cytotoxicity control for flavivirus capping enzyme inhibitors (AID 588742); type: functional; conditions: Chlorocebus sabaeus
[11] = biological target: Matrix metalloproteinase-14 (Homo sapiens, UniProt P50281); assay: Dose Response confirmation of uHTS hits for a small molecule inhibitors of MT1-MMP activation in a fluorescence assay set 2.; type: functional
Caspase-6 = biological target: T5, Caspase-6 (Homo sapiens, UniProt P55212); assay: inhibition of CASP6 peptide cleavage – biochemical, VEID-R110 fluorescence, cherry-pick, dose response (AID 720632)
T5 sequence (P55212 whole entry): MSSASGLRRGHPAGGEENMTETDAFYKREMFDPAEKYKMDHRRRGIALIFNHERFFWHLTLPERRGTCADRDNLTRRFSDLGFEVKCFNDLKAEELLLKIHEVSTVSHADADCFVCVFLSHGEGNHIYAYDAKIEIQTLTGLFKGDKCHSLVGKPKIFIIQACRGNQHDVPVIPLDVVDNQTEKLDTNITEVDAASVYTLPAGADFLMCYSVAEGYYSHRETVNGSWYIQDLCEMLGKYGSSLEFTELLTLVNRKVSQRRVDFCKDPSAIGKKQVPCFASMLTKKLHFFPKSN

Caspase-9 = Caspase-9 (Homo sapiens, UniProt P55211); assay: inhibitors of purified CASP9 protease – biochemical, fluorescence, plate reader, cherry-picked samples, selectivity assay for caspase-6 inhibitor project, dose response (AID 743293)
Caspase-7 = Caspase-7 (Homo sapiens, UniProt P55210); assay: caspase-7 enzyme inhibition, selectivity check – biochemical, DEVD-R110 fluorescence, cherry-pick, selectivity assay for caspase-6 inhibitor project, dose response (AID 743295); type: functional
[12] = biological target: 1-phosphatidylinositol 4,5-bisphosphate phosphodiesterase gamma-1 (Homo sapiens, UniProt P19174); assay: Counterscreen for inhibitors of phospholipase C isozymes (PLC-B3): Fluorescence-based biochemical high throughput dose response assay to identify inhibitors of phospholipase C isozymes (PLC-gamma1).
Caspase-8 = Caspase-8 (Homo sapiens, UniProt Q14790); assay: inhibitors of purified CASP8 protease – biochemical, Z-IETD-R110 fluorescence, cherry-picked samples, selectivity assay for caspase-6 inhibitor project, dose response (AID 743294)
[13] = biological target: 1-phosphatidylinositol 4,5-bisphosphate phosphodiesterase beta-3 (Homo sapiens, UniProt Q01970); assay: Fluorescence-based biochemical high throughput dose response assay to identify inhibitors of phospholipase C isozymes (PLC-B3).
Caspase-3 = biological target: T6, Caspase-3 (Homo sapiens, UniProt P42574); assay: human caspase-3 protease activity blockade – biochemical, fluorescence, cherry-picked samples, selectivity assay for caspase-6 allosteric inhibitor project, dose response (AID 743291)
T6 sequence (P42574 whole entry): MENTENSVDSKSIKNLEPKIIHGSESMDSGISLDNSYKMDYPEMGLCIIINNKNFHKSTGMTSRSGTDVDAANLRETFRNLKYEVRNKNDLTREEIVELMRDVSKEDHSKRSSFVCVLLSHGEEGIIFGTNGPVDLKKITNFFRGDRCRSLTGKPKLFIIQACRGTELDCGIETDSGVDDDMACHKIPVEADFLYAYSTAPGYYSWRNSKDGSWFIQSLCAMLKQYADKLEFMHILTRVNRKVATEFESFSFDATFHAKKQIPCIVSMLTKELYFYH

[14] = biological target: RNA-editing ligase 1, mitochondrial (Trypanosoma brucei brucei, UniProt P86926); assay: inhibition of trypanosome RNA editing ligase – biochemical, fluorescence, Trypanosoma brucei, dose response (AID 1117295); type: functional
[15] = biological target: T7, Mannose-6-phosphate isomerase (Homo sapiens, UniProt P34949); assay: phosphomannose isomerase inhibition – biochemical, fluorescence intensity, confirmation (AID 1535)
T7 sequence (P34949 whole entry): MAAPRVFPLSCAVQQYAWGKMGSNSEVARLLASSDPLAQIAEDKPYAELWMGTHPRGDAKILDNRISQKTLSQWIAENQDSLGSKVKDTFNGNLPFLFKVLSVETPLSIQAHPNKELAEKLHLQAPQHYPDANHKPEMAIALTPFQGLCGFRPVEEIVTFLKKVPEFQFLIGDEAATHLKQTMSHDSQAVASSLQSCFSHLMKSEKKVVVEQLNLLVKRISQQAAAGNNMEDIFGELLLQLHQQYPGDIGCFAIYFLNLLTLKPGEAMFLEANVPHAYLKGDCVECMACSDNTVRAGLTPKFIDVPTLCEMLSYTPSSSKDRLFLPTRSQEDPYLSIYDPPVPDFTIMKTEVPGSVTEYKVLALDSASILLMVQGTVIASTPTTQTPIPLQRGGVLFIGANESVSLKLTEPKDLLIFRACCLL

Phosphomannomutase 2 = Phosphomannomutase 2 (Homo sapiens, UniProt O15305); assay: Counter screen SAR assay for PMM2 inhibitors via a fluorescence intensity assay. [Related pubchem assays (depositor defined):AID1545, AID1574]
Sequence of Phosphomannomutase 2 (O15305 whole entry): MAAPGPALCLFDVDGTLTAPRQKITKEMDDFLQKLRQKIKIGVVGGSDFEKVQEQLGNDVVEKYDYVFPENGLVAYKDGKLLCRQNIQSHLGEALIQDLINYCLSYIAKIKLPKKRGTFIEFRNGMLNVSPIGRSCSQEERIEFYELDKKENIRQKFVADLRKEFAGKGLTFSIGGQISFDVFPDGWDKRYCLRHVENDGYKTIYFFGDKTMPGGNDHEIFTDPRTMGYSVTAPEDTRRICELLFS

T1 sequence (P09923 whole entry): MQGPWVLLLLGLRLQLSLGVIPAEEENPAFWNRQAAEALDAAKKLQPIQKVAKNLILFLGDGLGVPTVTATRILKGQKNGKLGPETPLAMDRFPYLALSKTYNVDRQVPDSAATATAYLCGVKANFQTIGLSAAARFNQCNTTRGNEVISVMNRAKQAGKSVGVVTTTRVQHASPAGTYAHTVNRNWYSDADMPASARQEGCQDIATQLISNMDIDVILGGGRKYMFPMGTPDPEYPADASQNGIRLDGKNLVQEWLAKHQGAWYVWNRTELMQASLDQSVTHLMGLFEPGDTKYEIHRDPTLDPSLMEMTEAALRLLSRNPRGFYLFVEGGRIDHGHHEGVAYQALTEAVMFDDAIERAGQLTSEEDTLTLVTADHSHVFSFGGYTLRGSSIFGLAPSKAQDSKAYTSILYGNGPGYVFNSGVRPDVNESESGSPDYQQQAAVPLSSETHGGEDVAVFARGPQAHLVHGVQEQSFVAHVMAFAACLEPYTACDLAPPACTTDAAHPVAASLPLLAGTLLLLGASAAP
Sequence of Lysine-specific demethylase 4A (O75164 whole entry): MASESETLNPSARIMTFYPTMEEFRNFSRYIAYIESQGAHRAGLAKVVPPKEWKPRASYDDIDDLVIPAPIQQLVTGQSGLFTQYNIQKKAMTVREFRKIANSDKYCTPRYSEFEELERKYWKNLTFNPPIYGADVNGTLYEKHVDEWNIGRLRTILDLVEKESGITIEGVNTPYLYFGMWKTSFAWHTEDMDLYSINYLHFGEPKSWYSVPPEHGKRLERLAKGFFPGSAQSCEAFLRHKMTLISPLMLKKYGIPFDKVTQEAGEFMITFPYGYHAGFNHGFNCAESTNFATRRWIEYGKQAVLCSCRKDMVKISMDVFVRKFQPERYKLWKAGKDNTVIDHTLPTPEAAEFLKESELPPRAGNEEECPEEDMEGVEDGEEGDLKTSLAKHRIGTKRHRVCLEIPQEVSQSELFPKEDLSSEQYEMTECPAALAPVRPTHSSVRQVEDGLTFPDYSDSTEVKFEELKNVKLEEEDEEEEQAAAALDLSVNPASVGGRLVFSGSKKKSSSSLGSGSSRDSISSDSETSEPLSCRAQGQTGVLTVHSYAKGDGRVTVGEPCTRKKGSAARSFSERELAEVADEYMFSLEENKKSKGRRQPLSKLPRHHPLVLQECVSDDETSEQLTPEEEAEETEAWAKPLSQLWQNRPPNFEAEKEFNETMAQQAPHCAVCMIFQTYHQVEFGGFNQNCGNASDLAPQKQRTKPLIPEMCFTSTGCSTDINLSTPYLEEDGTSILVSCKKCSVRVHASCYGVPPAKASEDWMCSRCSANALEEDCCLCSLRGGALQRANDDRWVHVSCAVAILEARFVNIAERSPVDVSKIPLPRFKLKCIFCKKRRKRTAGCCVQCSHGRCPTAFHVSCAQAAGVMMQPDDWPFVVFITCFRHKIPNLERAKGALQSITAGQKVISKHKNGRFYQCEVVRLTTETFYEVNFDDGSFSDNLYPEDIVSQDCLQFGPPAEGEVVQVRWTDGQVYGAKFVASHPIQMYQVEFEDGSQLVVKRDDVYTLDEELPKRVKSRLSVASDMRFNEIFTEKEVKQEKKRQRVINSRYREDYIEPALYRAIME
Sequence of Caspase-9 (P55211 1-315 limits assumed): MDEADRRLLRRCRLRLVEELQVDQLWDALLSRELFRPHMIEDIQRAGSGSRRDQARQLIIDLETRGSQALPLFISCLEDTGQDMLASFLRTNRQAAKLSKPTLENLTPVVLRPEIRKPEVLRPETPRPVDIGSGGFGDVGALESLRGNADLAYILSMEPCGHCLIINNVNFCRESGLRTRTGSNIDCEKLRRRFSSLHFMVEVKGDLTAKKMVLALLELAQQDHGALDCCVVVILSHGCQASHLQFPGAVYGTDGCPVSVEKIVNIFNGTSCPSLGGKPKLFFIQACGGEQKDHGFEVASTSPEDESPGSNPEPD
Sequence of Caspase-9 (P55211 331-416 limits assumed): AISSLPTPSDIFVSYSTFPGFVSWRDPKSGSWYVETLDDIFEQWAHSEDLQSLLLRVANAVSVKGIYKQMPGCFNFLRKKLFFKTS
Sequence of NS3 (A3EZJ3 whole entry): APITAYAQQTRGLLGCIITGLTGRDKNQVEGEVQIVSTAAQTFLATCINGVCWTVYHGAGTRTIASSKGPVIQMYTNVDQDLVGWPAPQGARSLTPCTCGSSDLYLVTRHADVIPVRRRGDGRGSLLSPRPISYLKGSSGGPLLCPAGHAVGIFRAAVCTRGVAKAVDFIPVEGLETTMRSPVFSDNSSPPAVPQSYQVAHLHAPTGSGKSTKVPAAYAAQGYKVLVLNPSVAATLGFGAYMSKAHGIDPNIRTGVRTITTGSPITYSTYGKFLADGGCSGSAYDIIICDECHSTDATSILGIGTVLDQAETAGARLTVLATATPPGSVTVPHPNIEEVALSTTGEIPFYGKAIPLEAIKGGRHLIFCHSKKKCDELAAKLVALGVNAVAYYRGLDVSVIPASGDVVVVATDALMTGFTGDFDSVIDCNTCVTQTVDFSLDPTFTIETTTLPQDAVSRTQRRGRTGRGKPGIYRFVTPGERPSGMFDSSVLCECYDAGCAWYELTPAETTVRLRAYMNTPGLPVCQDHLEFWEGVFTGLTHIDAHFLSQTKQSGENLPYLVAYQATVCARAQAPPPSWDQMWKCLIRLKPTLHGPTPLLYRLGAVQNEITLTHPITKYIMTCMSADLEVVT
Sequence of Caspase-7 (P55210 24-198 limits assumed): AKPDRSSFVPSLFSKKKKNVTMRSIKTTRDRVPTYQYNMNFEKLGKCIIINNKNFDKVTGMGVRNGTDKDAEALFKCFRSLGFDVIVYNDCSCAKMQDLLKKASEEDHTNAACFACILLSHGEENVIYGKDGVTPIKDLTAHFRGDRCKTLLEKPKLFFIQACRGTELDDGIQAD
Sequence of Caspase-7 (P55210 207-303 limits assumed): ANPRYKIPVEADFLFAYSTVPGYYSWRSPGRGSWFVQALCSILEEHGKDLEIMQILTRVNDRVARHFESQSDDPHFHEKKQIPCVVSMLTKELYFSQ
Sequence of 1-phosphatidylinositol 4,5-bisphosphate phosphodiesterase beta-3 (Q01970 whole entry): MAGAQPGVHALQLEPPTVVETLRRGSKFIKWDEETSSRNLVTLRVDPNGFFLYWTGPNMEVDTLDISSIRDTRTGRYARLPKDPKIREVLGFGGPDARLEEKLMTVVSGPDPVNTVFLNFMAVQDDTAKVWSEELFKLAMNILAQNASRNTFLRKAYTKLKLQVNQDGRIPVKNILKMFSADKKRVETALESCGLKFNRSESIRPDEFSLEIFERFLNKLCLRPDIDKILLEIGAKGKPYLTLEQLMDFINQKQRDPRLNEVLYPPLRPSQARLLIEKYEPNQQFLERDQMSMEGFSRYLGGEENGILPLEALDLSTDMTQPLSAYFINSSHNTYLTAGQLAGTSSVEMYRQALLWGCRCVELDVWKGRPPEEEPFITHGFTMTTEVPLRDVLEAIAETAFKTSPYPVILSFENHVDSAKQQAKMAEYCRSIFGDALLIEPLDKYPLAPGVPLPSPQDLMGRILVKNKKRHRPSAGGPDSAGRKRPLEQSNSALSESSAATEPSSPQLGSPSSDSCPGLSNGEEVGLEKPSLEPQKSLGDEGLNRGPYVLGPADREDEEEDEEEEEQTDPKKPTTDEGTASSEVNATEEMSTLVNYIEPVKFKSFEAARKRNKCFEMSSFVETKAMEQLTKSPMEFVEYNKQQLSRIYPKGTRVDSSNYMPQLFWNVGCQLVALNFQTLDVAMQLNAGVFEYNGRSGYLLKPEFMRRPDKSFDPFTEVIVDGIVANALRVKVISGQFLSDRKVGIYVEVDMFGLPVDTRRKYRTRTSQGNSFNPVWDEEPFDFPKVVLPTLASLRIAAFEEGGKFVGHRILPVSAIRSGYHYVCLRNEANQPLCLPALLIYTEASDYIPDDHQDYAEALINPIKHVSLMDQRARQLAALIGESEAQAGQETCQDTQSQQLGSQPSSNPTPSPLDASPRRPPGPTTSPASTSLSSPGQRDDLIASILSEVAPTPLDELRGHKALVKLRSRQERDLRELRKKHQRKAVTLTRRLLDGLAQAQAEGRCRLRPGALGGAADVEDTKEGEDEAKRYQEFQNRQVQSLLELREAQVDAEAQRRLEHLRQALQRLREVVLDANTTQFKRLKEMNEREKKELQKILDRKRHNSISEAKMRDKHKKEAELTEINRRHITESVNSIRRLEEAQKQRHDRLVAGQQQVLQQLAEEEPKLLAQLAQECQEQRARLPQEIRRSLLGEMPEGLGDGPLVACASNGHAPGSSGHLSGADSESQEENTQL
Sequence of RNA-editing ligase 1, mitochondrial (P86926 whole entry): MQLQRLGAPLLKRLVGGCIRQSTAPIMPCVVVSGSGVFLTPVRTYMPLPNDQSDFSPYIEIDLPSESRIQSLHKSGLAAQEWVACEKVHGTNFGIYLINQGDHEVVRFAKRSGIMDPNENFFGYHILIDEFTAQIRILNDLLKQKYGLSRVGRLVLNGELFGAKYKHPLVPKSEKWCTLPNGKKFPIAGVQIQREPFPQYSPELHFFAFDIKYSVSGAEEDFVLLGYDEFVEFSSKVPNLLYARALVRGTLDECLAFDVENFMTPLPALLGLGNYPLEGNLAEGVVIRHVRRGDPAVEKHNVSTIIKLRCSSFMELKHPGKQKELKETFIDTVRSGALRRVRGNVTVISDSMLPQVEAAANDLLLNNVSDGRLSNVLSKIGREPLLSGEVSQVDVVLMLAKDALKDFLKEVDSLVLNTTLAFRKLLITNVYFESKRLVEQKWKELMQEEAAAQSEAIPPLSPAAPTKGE

COc1ccccc1CNC(=O)CN(c1ccc(C)cc1)S(=O)(=O)c1c(C)noc1C
active: EC50 [1] 67.5 µM | EC50 [2] 86 µM | EC50 [3] 99 µM | EC50 [4] 76.2 µM

O=c1cc2oc3cc(O)c(O)cc3c(-c3ccccc3[N+](=O)[O-])c-2cc1O
active: EC50 [5] 8.25 µM | EC50 [6] 7.94 µM | EC50 (Streptokinase A) 11.2 µM | EC50 [7] 1.07 µM | IC50 (Large T antigen) 5.91 µM | IC50 (NS3) 0.99 µM | EC50 (Streptococcus) 10.2 µM | IC50 (Troponin, cardiac muscle) 1.64 µM | AC50 [8] 2.01 µM | AC50 [9] 1.97 µM | AC50 [10] 2.9 µM | CC50 (Vero) 12.2 µM | IC50 [11] 17.9 µM | AC50 (Caspase-6) 0.018 µM | AC50 (Caspase-7) 1.33 µM | AC50 (Caspase-8) 41.3 µM | AC50 (Caspase-3) 0.122 µM
inactive: AC50 (Caspase-9) > 70 µM | IC50 [12] 67.5 µM | IC50 [13] > 123 µM | IC50 [14] > 96.6 µM

COc1ccc(/N=c2\ssnc2Cl)cc1OC
active: IC50 [15] 36.7 µM
inactive: IC50 (Phosphomannomutase 2) > 100 µM
